Experimental data as given in patent US8410128B2, “Triazolopyridine compounds useful as kinase inhibitors” (Bristol-Myers Squibb Company, priority 2008, dated 2013).

Target: T1, p38 (Homo sapiens, UniProt Q16539)
T1 construct: GST (N); made in house; host or cells: E. coli
Test: p38 Assay (33P-ATP/MBP filter kinase assay)
Assay type: biochemical
Conditions: bacterially expressed, activated p38 10 nM; ATP 1 μM; MBP substrate; 25° C., 45 min
Protocol: Generation of p38 Kinases
For this assay, cDNAs of human p38α, β, and γ isozymes were cloned by PCR. These cDNAs were subcloned in the pGEX expression vector (Pharmacia). GST-p38 fusion protein was expressed in E. Coli and purified from bacterial pellets by affinity chromatography using glutathione agarose. p38 fusion protein was activated by incubating with constitutively active MKK6. Active p38 was separated from MKK6 by affinity chromatography. Constitutively active MKK6 was generated according to Raingeaud et al. (Mol. Cell. Biol., 1247-1255 (1996)).
The assays were performed in V-bottomed 96-well plates. The final assay volume was 60 μl prepared from three 20 μl additions of enzyme, substrates (MBP and ATP) and test compounds in assay buffer (50 mM Tris pH 7.5, 10 mM MgCl2, 50 mM NaCl and 1 mM DTT). Bacterially expressed, activated p38 was pre-incubated with test compounds for 10 min. prior to initiation of reaction with substrates. The reaction was incubated at 25° C. for 45 min. and terminated by adding 5 μl of 0.5 M EDTA to each sample. […] The filtermat was then dried in a microwave oven for 1 min., treated with MELTILEX® A scintillation wax (Wallac), and counted on a MICROBETA® scintillation counter Model 1450 (Wallac). Inhibition data were analyzed by nonlinear least-squares regression using PRIZM® (GraphPadSoftware). […]

T1 sequence (Q16539 whole entry): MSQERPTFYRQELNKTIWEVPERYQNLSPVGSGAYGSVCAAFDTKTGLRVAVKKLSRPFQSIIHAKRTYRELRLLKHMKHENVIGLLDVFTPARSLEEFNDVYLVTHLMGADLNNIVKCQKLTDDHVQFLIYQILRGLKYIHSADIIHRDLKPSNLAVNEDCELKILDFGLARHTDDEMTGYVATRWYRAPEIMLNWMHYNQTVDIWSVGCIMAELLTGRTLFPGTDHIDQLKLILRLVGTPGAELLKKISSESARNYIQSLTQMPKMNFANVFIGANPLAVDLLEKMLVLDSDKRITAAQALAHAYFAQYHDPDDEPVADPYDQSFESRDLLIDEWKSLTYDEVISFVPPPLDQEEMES

IC50: 581 nM
SMILES: CC(C)Nc1ncc(-c2ccc3nncn3c2)s1 [Example 12]
